For data set [1], the target named is T1, Acyl-homoserine lactone acylase PvdQ (Pseudomonas aeruginosa (strain LESB58), UniProt Q9I194).
T1 sequence (Q9I194 whole entry): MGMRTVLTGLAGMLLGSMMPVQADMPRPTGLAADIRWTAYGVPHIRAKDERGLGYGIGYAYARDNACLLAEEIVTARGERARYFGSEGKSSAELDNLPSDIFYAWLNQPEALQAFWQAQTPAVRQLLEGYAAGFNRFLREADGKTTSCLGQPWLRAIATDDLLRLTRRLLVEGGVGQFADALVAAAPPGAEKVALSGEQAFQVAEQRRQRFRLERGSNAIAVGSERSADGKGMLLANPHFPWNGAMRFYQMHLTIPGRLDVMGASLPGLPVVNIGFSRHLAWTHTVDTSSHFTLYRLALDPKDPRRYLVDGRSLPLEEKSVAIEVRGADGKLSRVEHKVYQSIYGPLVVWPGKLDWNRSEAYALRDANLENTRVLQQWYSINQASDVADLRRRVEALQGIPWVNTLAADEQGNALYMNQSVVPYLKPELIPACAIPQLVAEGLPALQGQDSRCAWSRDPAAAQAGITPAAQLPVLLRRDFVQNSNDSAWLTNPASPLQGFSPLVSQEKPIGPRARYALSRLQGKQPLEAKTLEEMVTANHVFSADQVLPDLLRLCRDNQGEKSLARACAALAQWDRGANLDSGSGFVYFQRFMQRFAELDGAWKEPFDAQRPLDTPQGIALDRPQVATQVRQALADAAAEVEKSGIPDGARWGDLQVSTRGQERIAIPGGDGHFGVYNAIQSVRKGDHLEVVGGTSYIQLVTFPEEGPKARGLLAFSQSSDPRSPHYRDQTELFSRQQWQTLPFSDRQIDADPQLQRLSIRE
The experiment in a line: Inhibition of Pseudomonas aeruginosa ATCC 15692 pvdQ.

Data set [2] addresses T1, Acyl-homoserine lactone acylase PvdQ. Put plainly: Inhibition of Pseudomonas aeruginosa ATCC 15692 pvdQ incubated for 4 hrs.
Data set [3] concerns the target T2, PA-I galactophilic lectin (Pseudomonas aeruginosa (strain ATCC 15692 / PAO1 / 1C / PRS 101 / LMG12228), UniProt Q05097).
T2 sequence (Q05097 whole entry): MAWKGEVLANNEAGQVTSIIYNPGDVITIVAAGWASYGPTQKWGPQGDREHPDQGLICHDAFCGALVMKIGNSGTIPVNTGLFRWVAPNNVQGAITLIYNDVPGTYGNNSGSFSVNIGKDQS
Put plainly: Binding affinity to Pseudomonas aeruginosa PAO1 LecA assessed as dissociation constant.

The nature of data set [4]: Half life in mouse. Format: ADME, organism-based. The note with it: in vivo.
The subject of data set [5] is Pseudomonas aeruginosa. Put plainly: Antimicrobial activity against polymyxin resistant Pseudomonas aeruginosa assessed as reduction in bacterial growth. It is filed as functional.
Data set [6] is described as follows: Antagonist activity at Pseudomonas aeruginosa MvfR.
Data set [7] deals with Elastase (Pseudomonas aeruginosa (strain ATCC 15692 / PAO1 / 1C / PRS 101 / LMG12228)) (UniProt P14756). Put plainly: Inhibition of Pseudomonas aeruginosa PAO1 elastase at 200 uM relative to control.
Elastase (Pseudomonas aeruginosa (strain ATCC 15692 / PAO1 / 1C / PRS 101 / LMG12228)), sequence (P14756 198-498 limits assumed): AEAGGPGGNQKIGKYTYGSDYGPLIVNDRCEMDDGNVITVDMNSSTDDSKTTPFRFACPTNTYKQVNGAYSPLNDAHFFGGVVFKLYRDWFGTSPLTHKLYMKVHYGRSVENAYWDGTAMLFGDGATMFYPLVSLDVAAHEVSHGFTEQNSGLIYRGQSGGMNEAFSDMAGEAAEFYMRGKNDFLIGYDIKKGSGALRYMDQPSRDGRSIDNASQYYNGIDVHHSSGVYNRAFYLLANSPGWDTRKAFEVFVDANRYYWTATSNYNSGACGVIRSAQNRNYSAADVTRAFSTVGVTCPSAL
For data set [8], the system named is Pseudomonas aeruginosa. Put plainly: Inhibition of Pseudomonas aeruginosa PAO1 Pyocyanin at 200 uM relative to control.
A short description of data set [9]: Inhibition of bacterial FabH. Also on record: species or system Bacteria.
The next data set deals with Elastase (Pseudomonas aeruginosa (strain ATCC 15692 / PAO1 / 1C / PRS 101 / LMG12228), UniProt P14756). The experiment in a line: Inhibition of Pseudomonas aeruginosa LasB elastase using aminobenzoyl-Ala-Gly-Leu-Ala-p-nitro-benzyl-amide as substrate b microtiter-based fluorimetric assay.
Elastase, sequence (P14756 whole entry): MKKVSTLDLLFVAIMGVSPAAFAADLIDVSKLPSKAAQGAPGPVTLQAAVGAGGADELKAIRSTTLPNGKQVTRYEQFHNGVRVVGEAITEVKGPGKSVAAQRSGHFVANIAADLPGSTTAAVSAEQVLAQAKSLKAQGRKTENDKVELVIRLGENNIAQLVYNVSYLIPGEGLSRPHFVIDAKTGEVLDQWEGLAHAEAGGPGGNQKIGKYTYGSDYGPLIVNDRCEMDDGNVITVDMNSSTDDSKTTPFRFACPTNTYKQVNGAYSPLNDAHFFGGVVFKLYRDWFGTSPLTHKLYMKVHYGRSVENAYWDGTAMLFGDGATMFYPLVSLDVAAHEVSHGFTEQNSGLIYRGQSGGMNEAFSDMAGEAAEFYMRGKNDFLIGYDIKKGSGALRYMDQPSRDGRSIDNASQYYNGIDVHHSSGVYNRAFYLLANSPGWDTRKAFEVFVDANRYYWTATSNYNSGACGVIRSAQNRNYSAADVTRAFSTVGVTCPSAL
The test system of data set [10] is Pseudomonas aeruginosa. Put plainly: Inhibition of Pseudomonas aeruginosa PAO1 Pyocyanin at 100 uM relative to control.

Bridge positions count the residues as written; N and C are the ends. Square brackets hold non-standard residues; d marks the D form. Peptide text beside a SMILES is read from it. * marks the point of attachment. X1 = CC[C@@H](C)CCCCC(=O)*; Dab = NCC[C@H](N)C(=O)O

`O=c1onc2n1-c1cc(Br)ccc1OC2`: the IC50 in data set [1] was 65000 nM; in [2], under 20 nM. With `C[C@@H]1O[C@H](C)[C@@H](O)[C@H](O)[C@@H]1O`, in data set [3], the Kd worked out at 17000 nM. Regarding `CO[C@H]1O[C@H](CNS(=O)(=O)c2c(C)cc(C)cc2C)[C@@H](O)[C@H](O)[C@@H]1O`, the Kd in data set [3] was 3300 nM. The half-life in data set [4] is 5 min. Take `CC[C@@H](C)CCCCC(=O)N[C@@H](CCN)C(=O)N[C@H](C(=O)N[C@@H](CCN)C(=O)N[C@H]1CCNC(=O)[C@H]([C@@H](C)O)NC(=O)[C@H](CCN)NC(=O)[C@H](CCN)NC(=O)[C@H](CC(C)C)NC(=O)[C@@H](Cc2ccccc2)NC(=O)[C@H](CCN)NC1=O)[C@@H](C)O` (X1-[Dab]T[Dab][Dab][Dab][dF]L[Dab][Dab]T; lactam 4-C): the MIC in the data set with Pseudomonas aeruginosa [5] is under 2 µg/mL. `OC[C@H]1O[C@@H](Sc2ccc3ccccc3c2)[C@H](O)[C@@H](O)[C@H]1O`: the Kd in data set [3] was 6300 nM. The molecule `O=C(CSc1nc2cc([N+](=O)[O-])ccc2[nH]1)Nc1ccc(Oc2ccccc2)cc1` had an IC50 in data set [6] of 300 nM. With `CCCCCCCCCC(=O)CC(=O)Nc1cccc(OC)c1`, the inhibition in data set [7] stood at 63%; with Pseudomonas aeruginosa [8], 93%. In [9], `CCN(CC)S(=O)(=O)c1cc(C(=O)Nc2ccccc2C(=O)O)ccc1Br` had an IC50 of 65000 nM. Molecule `CC(C)C[C@H](NP(=O)(O)O[C@@H]1O[C@@H](C)[C@H](O)[C@@H](O)[C@H]1O)C(=O)N[C@@H](Cc1c[nH]c2ccccc12)C(=O)O` [PHOSPHORAMIDON] came in with a Ki at Elastase of 57 nM. This lies in the double-digit nanomolar range. In data set [4], `CO[C@H]1O[C@H](CO)[C@@H](O)[C@H](O)[C@@H]1O` had a half-life of 0.75 min.

Turning to `N=C(N)NCCC[C@H](NC(=O)COCCOCCNC(=O)[C@H](CCCCNC(=O)[C@@H]1C[C@H](NC(=O)[C@H](Cc2cn(CCNC(=O)c3ccc(S[C@@H]4O[C@H](CO)[C@H](O)[C@H](O)[C@H]4O)cc3)nn2)NC(=O)COc2ccccc2)CN1)NC(=O)[C@@H]1C[C@H](NC(=O)[C@H](Cc2cn(CCNC(=O)c3ccc(S[C@@H]4O[C@H](CO)[C@H](O)[C@H](O)[C@H]4O)cc3)nn2)NC(=O)COc2ccccc2)CN1)C(N)=O`, the Kd in data set [3] was 82 nM. For the molecule `CO[C@H]1O[C@H]([C@@H](O)CNS(=O)(=O)c2c(C)cc(C)cc2C)[C@@H](O)[C@H](O)[C@@H]1O`, the Kd in data set [3] came to 100 nM. `CO[C@H]1O[C@H](CNC(=O)/C=C/c2ccccc2)[C@@H](O)[C@H](O)[C@@H]1O` showed a half-life in data set [4] of 5 min. `COc1ccc(/C=C/C(=O)NC[C@H]2O[C@H](OC)[C@@H](O)[C@@H](O)[C@@H]2O)cc1OC`: in [3], the Kd is 11000 nM. The molecule further had a half-life in [4] of 5 min. Turning to `Nc1nnc(-c2cccc(C(F)(F)F)c2)o1`, the IC50 in [6] was 250 nM. Same read-out and setting: for `CC(C)(C)c1ccc(C(=O)NO)cc1` the value was 87 nM. Take `C=CCNc1ncnc2ccc(Br)cc12`: the IC50 in data set [1] was 130000 nM; in data set [2], under 20 nM. As to `CCCCCCCCCNC(=O)CC(=O)c1ccccc1`, the inhibition in the data set on Pseudomonas aeruginosa [10] is 90%.

The term IC50 denotes the concentration that inhibits the measured activity by half. A high value points to a need for much substance. One may read the Kd as the constant that tells how readily two partners part at equilibrium. As a reminder, the half-life is the time needed for the level to fall by half in the phase considered. As a reminder, the MIC is the lowest concentration that inhibits growth of the organism. Usually inhibition stands for the relative decrease from the control value, in per cent. As usually defined, the Ki is a dissociation constant, usually derived from enzyme kinetics or from competition with a known ligand. A high value points to weaker binding.

(Values after ChEMBL document CHEMBL5257018, “Novel Strategies for the Treatment of Pseudomonas aeruginosa Infections” (J Med Chem, 2016).)
